Test results from US12252524B2, “GIP/GLP1 co-agonist compounds” (Eli Lilly and Company, priority 2018, dated 2025).
pEC50, pKi: −log10 of the molar value. Where two headings read alike, the source gives them in different places. Numbered stars: 1 amine (or outer) side, 2 acyl side, 3 side chain; on linkers, the order of the positions; unused ones are H or OH. Square brackets hold non-standard residues; d marks the D form. Side chains are listed from the residue outwards. Peptide text beside a SMILES is read from it. * marks the point of attachment. C20 diacid = O=C(O)CCCCCCCCCCCCCCCCCCC(=O)*; γGlu = O=C(O)[C@H](CCC(=O)[*:2])N[*:1]; αMeF = C[C@](N)(Cc1ccccc1)C(=O)O; αMeL = CC(C)C[C@](C)(N)C(=O)O; AEEA = NCCOCCOCC(=O)O; Aib = CC(C)(N)C(=O)O

Experiments:
[1] = Proteolytic stability assay in 90% pig small intestinal fluid (pSIF); assay type: in vitro ADME; details: 90% pSIF, 37° C.
Method: Peptides are diluted to a concentration of 0.4 mg/mL in 90% pig small intestinal fluid. After the mixing, 20 μL are immediately removed (time 0 for the time point of pre-incubation). The mixture is then incubated at 37° C. at 150 rpm. […] The sample is centrifuged at 20,000×g for 20 min at 4° C.
The data analysis is performed using MassLynx.

[2] = biological target: T1, human GLP-1R (Homo sapiens, UniProt P43220); assay: GLP-1R HEK293 cell membrane [35S]GTPγS binding assay; assay type: biochemical; set-up: expressed in transfected cells; host or cells: HEK293 cells expressing human GLP-1R; membranes
T1 sequence (P43220 24-463): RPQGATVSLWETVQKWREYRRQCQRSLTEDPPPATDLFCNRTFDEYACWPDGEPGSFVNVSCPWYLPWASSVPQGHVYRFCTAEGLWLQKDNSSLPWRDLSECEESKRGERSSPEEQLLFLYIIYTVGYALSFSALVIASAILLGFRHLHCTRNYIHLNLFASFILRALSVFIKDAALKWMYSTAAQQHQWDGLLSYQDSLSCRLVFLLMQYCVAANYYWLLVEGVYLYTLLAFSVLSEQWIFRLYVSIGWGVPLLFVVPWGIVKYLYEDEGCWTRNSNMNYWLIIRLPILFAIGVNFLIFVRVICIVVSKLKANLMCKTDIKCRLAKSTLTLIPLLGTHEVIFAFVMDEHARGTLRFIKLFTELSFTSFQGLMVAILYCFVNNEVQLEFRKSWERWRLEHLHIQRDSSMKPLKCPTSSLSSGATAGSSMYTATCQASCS
Summary of the method: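 Agonist-driven Gαs activation read as [35S]GTPγS ([…]) binding to receptor-expressing HEK293 membranes, 30 min at room temperature, pH 7.4. Detection by anti-Gαs immunocapture on scintillation beads; EC50 derived from four-parameter logistic concentration-response fit.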

[3] = biological target: T1, human GLP-1R; assay: [125I]-GLP-1 binding (SPA), human GLP-1 receptor; set-up: expressed in transfected cells; crude membranes
Summary of the method: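 Assay buffer: HEPES 25 mM, pH 7.4, CaCl2 2.5 mM, MgCl2 1 mM, with EDTA-free protease inhibitors. Receptor came from crude cell membranes prepared by homogenization and centrifugation at 4° C. IC50s came from four-parameter fits (maximum, minimum, IC50, Hill slope) and were expressed as Ki geometric means with SEM.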

[4] = biological target: T2, human GIP receptor (Homo sapiens, UniProt P48546); assay: [125I]-GIP binding (SPA), human GIP receptor
T2 construct: expressed in transfected cells; crude membranes
T2 sequence (P48546 22-466): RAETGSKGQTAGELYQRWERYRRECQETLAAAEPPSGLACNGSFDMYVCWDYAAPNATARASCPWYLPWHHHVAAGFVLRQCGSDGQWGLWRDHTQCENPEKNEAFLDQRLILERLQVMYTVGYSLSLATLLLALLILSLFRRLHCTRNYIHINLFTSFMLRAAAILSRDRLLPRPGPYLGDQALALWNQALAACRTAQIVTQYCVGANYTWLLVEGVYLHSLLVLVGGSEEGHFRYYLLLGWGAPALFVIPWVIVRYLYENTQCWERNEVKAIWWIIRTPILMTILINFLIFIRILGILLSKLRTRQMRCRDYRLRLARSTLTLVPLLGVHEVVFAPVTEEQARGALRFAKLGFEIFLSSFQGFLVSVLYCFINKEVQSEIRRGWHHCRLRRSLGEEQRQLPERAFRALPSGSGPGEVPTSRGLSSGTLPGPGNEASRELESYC

[5] = biological target: T3, human Gcg receptor (Homo sapiens, UniProt P47871); assay: [125I]-Glucagon binding (SPA), human Gcg receptor
T3 construct: expressed in transfected cells; crude membranes
T3 sequence (P47871 26-477): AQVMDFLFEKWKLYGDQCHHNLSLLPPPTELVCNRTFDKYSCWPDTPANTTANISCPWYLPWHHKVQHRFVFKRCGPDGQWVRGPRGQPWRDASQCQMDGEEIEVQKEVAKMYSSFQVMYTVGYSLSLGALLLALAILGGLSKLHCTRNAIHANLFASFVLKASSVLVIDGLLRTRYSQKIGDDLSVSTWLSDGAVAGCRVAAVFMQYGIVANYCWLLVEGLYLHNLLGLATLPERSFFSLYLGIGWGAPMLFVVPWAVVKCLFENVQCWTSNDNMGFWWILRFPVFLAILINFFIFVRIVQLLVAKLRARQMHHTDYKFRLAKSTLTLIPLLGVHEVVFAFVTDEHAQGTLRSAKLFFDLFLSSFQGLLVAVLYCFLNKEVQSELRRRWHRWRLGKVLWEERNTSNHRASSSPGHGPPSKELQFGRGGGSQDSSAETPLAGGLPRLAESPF
Summary of the method: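 Scintillation counts are taken after membranes and WGA beads incubate and settle for 12 hours at room temperature. Buffer is 25 mM HEPES, pH 7.4, with CaCl2, MgCl2, bacitracin and Tween-20. Ki values, from four-parameter IC50 fits, are geometric means over independent days.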

[6] = biological target: human GLP-1 receptor (GLP-1R) (Homo sapiens, UniProt P43220); assay: cAMP pharmacological functional assay in presence of casein, hGLP-1R; assay type: cell-based
human GLP-1 receptor (GLP-1R), sequence (P43220 24-463): as the sequence (P43220 24-463) above

[7] = biological target: T4, gastric inhibitory peptide receptor (GIPR) (Homo sapiens, UniProt P48546); assay: cAMP pharmacological functional assay in presence of casein, hGIPR; assay type: cell-based
T4 sequence (P48546 22-466): T2 sequence (P48546 22-466)

[8] = Body weight in diet-induced obese C57/B16 mice, 14-day treatment; assay type: in vivo, C57/B16 diet-induced obese (DIO) male mice; details: s.c., QD, DIO mice
Method: C57/B16 diet-induced obese (DIO) male mice (Taconic, Germantown, NY) weighing 41-50 g are used. Animals are individually housed in a temperature-controlled (24° C.) facility with a 12 hour light/dark photoperiod (lights off at 10:00 AM and lights on at 10:00 PM), with free access to food and water. After 2 week acclimatization to the facility, mice are randomized to treatment groups (n=6/group) based on body weight so each group has similar starting mean body weight.
Mice are treated with either vehicle (40 mM Tris-HCl at pH 8.0) or several peptides between the dose ranges of 0.03 nmol/kg to 10 nmol/kg. Treatments are subcutaneously administered to ad libitum fed DIO mice 30-90 minutes prior to the onset of the dark cycle daily (QD) for 14 days. During the course of the study, body weight and food intake are monitored daily. […]
[formula] “0” dose group represents the vehicle-treated mice during each study. All data are expressed as mean±SEM of 5-6 mice per group. Statistical analyses are assessed by one-way ANOVA followed by Dunnett's multiple comparison test to compare treatment groups to ‘0’, dose (vehicle). *Significant differences are identified at p<0.05. Body weight change after treatment with Example compounds after 15 days. “Δ from vehicle” refers to difference between body weight at day 15 between test and vehicle groups. “% n change” refers to percent decrease in body weight between days 1 and 15 in test groups. Percent decrease in body weight for animals receiving vehicle is recorded, and is less than about 100 in each study.

Question: Which “percentage of peptide not cleaved using pSIF” value ([1]; 0 min) does the source give for `CC[C@H](C)[C@H](NC(=O)[C@H](CC(C)C)NC(=O)[C@](C)(Cc1ccc(O)cc1)NC(=O)[C@@H](CCC(=O)O)NC(=O)[C@@H](NC(=O)[C@H](Cc1ccccc1)NC(=O)[C@H](CCC(=O)O)NC(=O)C(C)(C)NC(=O)[C@H](CCC(N)=O)NC(=O)[C@H](C)NC(=O)[C@H](CCCCNC(=O)COCCOCCNC(=O)COCCOCCNC(=O)CC[C@H](NC(=O)CCCCCCCCCCCCCCCCC(=O)O)C(=O)O)NC(=O)[C@H](CCCN)NC(=O)[C@H](CC(=O)O)NC(=O)[C@H](CC(C)C)NC(=O)[C@](C)(CC(C)C)NC(=O)[C@@H](NC(=O)[C@H](CO)NC(=O)[C@@H](NC(=O)[C@H](CC(=O)O)NC(=O)[C@H](CO)NC(=O)[C@@H](NC(=O)[C@](C)(Cc1ccccc1F)NC(=O)[C@@H](NC(=O)CNC(=O)[C@H](CCC(=O)O)NC(=O)C(C)(C)NC(=O)[C@@H](N)Cc1ccc(O)cc1)[C@@H](C)O)[C@@H](C)O)C(C)C)[C@@H](C)CC)[C@@H](C)CC)C(=O)N[C@@H](CCC(=O)O)C(=O)NCC(=O)NCC(=O)N1CCC[C@H]1C(=O)N[C@@H](CO)C(=O)N[C@@H](CO)C(=O)NCC(=O)N[C@@H](C)C(=O)N1CCC[C@H]1C(=O)N1CCC[C@H]1C(=O)N1CCC[C@H]1C(=O)N[C@@H](CO)C(N)=O` [Example 5] here?
Answer: 100%

Question: What about the remaining at 0.5 h, 0.4 mg/mL ([1]; pig, 90% pig small intestinal fluid (pSIF), 30 min, read-out: percentage of peptide not cleaved using pSIF) of the same molecule?
Answer: 76.9%

Question: And the remaining at 0.75 h, 0.4 mg/mL ([1]; pig, 90% pig small intestinal fluid (pSIF), 45 min, read-out: percentage of peptide not cleaved using pSIF)?
Answer: 56.8%

Question: And the remaining at 1 h, 0.4 mg/mL ([1]; pig, 90% pig small intestinal fluid (pSIF), 60 min, read-out: percentage of peptide not cleaved using pSIF)?
Answer: 60.7%

Question: What about the pEC50 [2] of the same molecule?
Answer: 9.71

Question: And the pKi [3]?
Answer: 9.04

Question: What about the pKi [4] of the same molecule?
Answer: 10.21

Question: And the pKi [5]?
Answer: 6.28

Question: What about the pEC50 [6] of the same molecule?
Answer: 10.79

Question: And the pEC50 [7]?
Answer: 10.51

Question: For `CC[C@H](C)[C@H](NC(=O)[C@H](CC(C)C)NC(=O)[C@H](Cc1ccc(O)cc1)NC(=O)[C@H](CCC(=O)O)NC(=O)[C@@H](NC(=O)[C@H](Cc1ccccc1)NC(=O)[C@H](CCC(=O)O)NC(=O)C(C)(C)NC(=O)[C@H](CCC(N)=O)NC(=O)[C@H](C)NC(=O)[C@H](CCCCNC(=O)COCCOCCNC(=O)COCCOCCNC(=O)CC[C@H](NC(=O)CCCCCCCCCCCCCCCCCCC(=O)O)C(=O)O)NC(=O)[C@H](CCCCN)NC(=O)[C@H](CC(=O)O)NC(=O)[C@H](CC(C)C)NC(=O)[C@](C)(CC(C)C)NC(=O)[C@@H](NC(=O)[C@H](CO)NC(=O)[C@H](Cc1ccc(O)cc1)NC(=O)[C@H](CC(=O)O)NC(=O)[C@H](CO)NC(=O)[C@@H](NC(=O)[C@](C)(Cc1ccccc1)NC(=O)[C@@H](NC(=O)CNC(=O)[C@H](CCC(=O)O)NC(=O)C(C)(C)NC(=O)[C@@H](N)Cc1ccc(O)cc1)[C@@H](C)O)[C@@H](C)O)[C@@H](C)CC)[C@@H](C)CC)C(=O)N[C@@H](CCC(=O)O)C(=O)NCC(=O)NCC(=O)N1CCC[C@H]1C(=O)N[C@@H](CO)C(=O)N[C@@H](CO)C(=O)NCC(N)=O` [Example 123] (H-Y[Aib]EGT[αMeF]TSDYSI[αMeL]LDKK([AEEA-AEEA-γGlu-C20 diacid])AQ[Aib]EFIEYLIEGGPSSG-NH2), which “percent body weight after 14-day of treatment” value (from here on “percent body weight”) ([8]; dose 0.03 nmol/kg) is on record?
Answer: 94.7%

Question: And the “percent body weight” value ([8]; dose 0.1 nmol/kg)?
Answer: 90.5%

Question: What about the “percent body weight” value ([8]; dose 0.3 nmol/kg) of the same molecule?
Answer: 86.5%

Question: What about the “percent body weight” value ([8]; dose 1 nmol/kg) of the same molecule?
Answer: 81.3%

Question: And the “percent body weight” value ([8]; dose 3 nmol/kg)?
Answer: 75.1%

Question: What about the “percent body weight” value ([8]; dose 10 nmol/kg) of the same molecule?
Answer: 68.6%

Question: What about the Ki ([3]; read-out: hGLP1R Ki, (nM) (SEM, n)) of the same molecule?
Answer: 1.31 nM

Question: And the Ki ([4]; read-out: hGIPR Ki, nM (SEM, n))?
Answer: 0.0469 nM

Question: What about the Ki ([5]; read-out: hGLcgR Ki, nM (SEM, n)) of the same molecule?
Answer: 80.1 nM

Question: What about the EC50 ([6]; HEK293 cells expressing hGLP-1R, 0.1% Casein, geometric mean, read-out: hGLP1R cAMP Rel EC50 nM (SEM, n)) of the same molecule?
Answer: 0.0344 nM

Question: And the EC50 ([7]; HEK293 cells expressing hGIPR, 0.1% Casein, geometric mean, read-out: hGIPR cAMP Rel EC50 nM (SEM, n))?
Answer: 0.0423 nM
